Test results: US20190263796A1, “LIM KINASE INHIBITORS, PHARMACEUTICAL COMPOSITION AND METHOD OF USE IN LIMK-MEDIATED DISEASES” (CELLIPSE, priority 2016, published 2019)

Tests used:
P-MEK/Total MEK = experiment: Western blot MEK1 phosphorylation, Kasumi-1; type: cell-based; settings: Kasumi-1 cells
Protocol: Cells were maintained at 37° C. with 5% CO2.
In a 6 wells plate (Falcon 353046), 2·10^6 cells in 1.5 mL medium are treated for 2 h with compounds. Cells are then collected and cell lysis is performed at 4° C. using RIPA buffer supplemented with protease inhibitors cocktail (Sigma-Aldrich P8340) and phosphatase inhibitors cocktail (Sigma-Aldrich P5726). Following centrifugation 30 min 15000 g 4° C., supernatants are mixed with Laemmli buffer and denaturation is performed by heating 5 min 95° C. 10 μL of samples are subjected to electrophoresis on 15% SDS-PAGE. After electro-transfer (Mini Transblot, Bio-Rad), the PVDF membrane (Merck-Millipore Immobilon P IPVH00010) is blocked with Tris Buffered Saline, pH 7.4 (TBS) with 0.1% Tween 20 and 5% BSA for 1 h at room temperature under agitation. The membrane was rinsed 3 times 10 min at room temperature under agitation with TBS, 0.1% Tween-20 (TBST) and then 1 h at room temperature with anti-phospho-Ser218/222-MEK1 (Merck-Millipore 07-461, 1/1000 dilution) antibody or anti-MEK1 (Merck-Millipore 07-641, 1/1000 dilution) diluted in TBS, 0.1% Tween 20 and 1% BSA. The membrane is then rinsed 3 times 10 min RT under agitation in TBST and incubated for 1 h with anti-rabbit secondary antibody, horseradish peroxidase conjugated (Jackson Immunoresearch #711-036-152) under agitation at room temperature. After three washes 10 min at room temperature in TBST, the detection of total or phosphorylated cofilin was performed using chemiluminescence kit ECL™ Plus (GE Healthcare RPN2132). For each concentration of compound, ratio between phosphorylated cofilin and total cofilin is determined. This ratio is then expressed as percentage of control ratio (i.e., ratio from DMSO treated cells). IC50 P-MEK/Total MEK is then determined.
Selectivity ratios are calculated by dividing the IC50 P-MEK/Total MEK value (μM) by the IC50 Phospho-Ser3-Cofilin/Total Cofilin value (μM).

cKit(D816H)(h) = biological target: T1, cKit(D816H)(h) (Homo sapiens, UniProt P10721, D816H); experiment: KinaseProfiler panel: cKit(D816H)(h); type: biochemical; settings: residual activity, 5 μM inhibitor, Km ATP
T1 construct: purchased Merck-Millipore (KinaseProfiler panel service)
Protocol: (§1) Kinase selectivity was performed on a panel of 58 recombinant protein kinases. The assays were performed in the presence of 5 μM inhibitor at the respective Km ATP for each kinase, using the KinaseProfiler panel service (Merck-Millipore). Residual activity measured in the presence of […] inhibitor is expressed as the percent of activity determined in the absence of inhibitor.

[1] = tested on: Phospho-Ser3-Cofilin/Total Cofilin; experiment: Western blot of cellular cofilin phosphorylation status, MV4-11 (II.4); type: cell-based; settings: Homo sapiens; MV4-11 cells; 2 h treatment
Protocol: MV4-11 cell line was originally purchased from the American Type Culture Collection (ATCC). MV4-11 cells are cultured in RPMI 1640 10% (v/v) FBS supplemented with 100 U/mL^−1 penicillin, 0.1 mg·mL^−1 streptomycin (PAN Biotech P06-07100) and 2 mM Glutamine (Sigma-Aldrich 59202C). Cells were maintained at 37° C. with 5% CO2.
In a 6 wells plate (Falcon 353046), 2·10^6 cells in 1.5 mL medium are treated for 2 h with compounds. Cells are then collected and cell lysis is performed at 4° C. using RIPA buffer supplemented with protease inhibitors cocktail (Sigma-Aldrich P8340) and phosphatase inhibitors cocktail (Sigma-Aldrich P5726). Following centrifugation 30 min 15000 g 4° C., supernatants are mixed with Laemmli buffer and denaturation is performed by heating 5 min 95° C. 10 μL of samples are subjected to electrophoresis on 15% SDS-PAGE. After electro-transfer (Mini Transblot, Bio-Rad), the PVDF membrane (Merck-Millipore Immobilon P IPVH00010) is blocked with Tris Buffered Saline, pH 7.4 (TBS) with 0.1% Tween 20 and 5% BSA for 1 h RT under agitation. The membrane was rinsed 3 times 10 min RT under agitation with TBS, 0.1% Tween-20 (TBST) and then 1 h RT with anti-phospho-Ser3-cofilin (Cell Signaling Technology #3313, 1/1000 dilution) antibody or anti-cofilin (Cell Signaling Technology #3312, 1/1000 dilution) diluted in TBS, 0.1% Tween 20 and 1% BSA. The membrane is then rinsed 3 times 10 min RT under agitation in TBST and incubated for 1 hour with anti-rabbit secondary antibody, horseradish peroxidase conjugated (Jackson Immunoresearch #711-036-152) under agitation at room temperature. After three washes 10 min RT in TBST, the detection of total or phosphorylated cofilin was performed using chemiluminescence kit ECL™ Plus (GE Healthcare RPN2132). For each concentration of compound, ratio between phosphorylated cofilin and total cofilin is determined. This ratio is then expressed as percentage of control ratio (i.e ratio from DMSO treated cells). IC50 is then determined.

A-Raf(h) = biological target: T2, A-Raf(h) (Homo sapiens, UniProt P10398); experiment: KinaseProfiler panel: A-Raf(h); type: biochemical; settings: residual activity, 5 μM inhibitor, Km ATP
T2 construct: purchased Merck-Millipore (KinaseProfiler panel service)
Protocol: as §1

Plk3(h) = biological target: T3, Plk3(h) (Homo sapiens, UniProt Q9H4B4); experiment: KinaseProfiler panel: Plk3(h); type: biochemical; settings: residual activity, 5 μM inhibitor, Km ATP
T3 construct: purchased Merck-Millipore (KinaseProfiler panel service)
Protocol: as §1

BTK(h) = biological target: T4, BTK(h) (Homo sapiens, UniProt Q06187); experiment: KinaseProfiler panel: BTK(h); type: biochemical; settings: residual activity, 5 μM inhibitor, Km ATP
T4 construct: purchased Merck-Millipore (KinaseProfiler panel service)
Protocol: as §1

TrkC(h) = biological target: T5, TrkC(h) (Homo sapiens, UniProt Q16288); experiment: KinaseProfiler panel: TrkC(h); type: biochemical; settings: residual activity, 5 μM inhibitor, Km ATP
T5 construct: purchased Merck-Millipore (KinaseProfiler panel service)
Protocol: as §1

cKit(h) = biological target: T6, cKit(h) (Homo sapiens, UniProt P10721); experiment: KinaseProfiler panel: cKit(h); type: biochemical; settings: residual activity, 5 μM inhibitor, Km ATP
T6 construct: purchased Merck-Millipore (KinaseProfiler panel service)
Protocol: as §1

Src(1-530)(h) = biological target: T7, Src(1-530)(h) (Homo sapiens, UniProt P12931); experiment: KinaseProfiler panel: Src(1-530)(h); type: biochemical; settings: residual activity, 5 μM inhibitor, Km ATP
T7 construct: Src(1-530)(h); purchased Merck-Millipore (KinaseProfiler panel service)
Protocol: as §1

PKBα(h) = biological target: T8, PKBα(h) (Homo sapiens, UniProt P31749); experiment: KinaseProfiler panel: PKBα(h); type: biochemical; settings: residual activity, 5 μM inhibitor, Km ATP
T8 construct: purchased Merck-Millipore (KinaseProfiler panel service)
Protocol: as §1

EGFR(h) = biological target: T9, EGFR(h) (Homo sapiens, UniProt P00533); experiment: KinaseProfiler panel: EGFR(h); type: biochemical; settings: residual activity, 5 μM inhibitor, Km ATP
T9 construct: purchased Merck-Millipore (KinaseProfiler panel service)
Protocol: as §1

LIMK1(h) = LIMK1(h) (Homo sapiens, UniProt P53667); experiment: KinaseProfiler panel: LIMK1(h); type: biochemical; parameters: purchased Merck-Millipore (KinaseProfiler panel service); settings: residual activity, 5 μM inhibitor, Km ATP
Protocol: as §1

TrkB(h) = biological target: T10, TrkB(h) (Homo sapiens, UniProt Q16620); experiment: KinaseProfiler panel: TrkB(h); type: biochemical; settings: residual activity, 5 μM inhibitor, Km ATP
T10 construct: purchased Merck-Millipore (KinaseProfiler panel service)
Protocol: as §1

[2] = biological target: T11, PI3 Kinase (p110a(E542K)/p85a)(h) (Homo sapiens, UniProt P42336, E542K); experiment: KinaseProfiler panel: PI3 Kinase (p110a(E542K)/p85a)(h); type: biochemical; settings: residual activity, 5 μM inhibitor, Km ATP
T11 construct: purchased Merck-Millipore (KinaseProfiler panel service)
Protocol: as §1

T4 sequence (Q06187 whole entry): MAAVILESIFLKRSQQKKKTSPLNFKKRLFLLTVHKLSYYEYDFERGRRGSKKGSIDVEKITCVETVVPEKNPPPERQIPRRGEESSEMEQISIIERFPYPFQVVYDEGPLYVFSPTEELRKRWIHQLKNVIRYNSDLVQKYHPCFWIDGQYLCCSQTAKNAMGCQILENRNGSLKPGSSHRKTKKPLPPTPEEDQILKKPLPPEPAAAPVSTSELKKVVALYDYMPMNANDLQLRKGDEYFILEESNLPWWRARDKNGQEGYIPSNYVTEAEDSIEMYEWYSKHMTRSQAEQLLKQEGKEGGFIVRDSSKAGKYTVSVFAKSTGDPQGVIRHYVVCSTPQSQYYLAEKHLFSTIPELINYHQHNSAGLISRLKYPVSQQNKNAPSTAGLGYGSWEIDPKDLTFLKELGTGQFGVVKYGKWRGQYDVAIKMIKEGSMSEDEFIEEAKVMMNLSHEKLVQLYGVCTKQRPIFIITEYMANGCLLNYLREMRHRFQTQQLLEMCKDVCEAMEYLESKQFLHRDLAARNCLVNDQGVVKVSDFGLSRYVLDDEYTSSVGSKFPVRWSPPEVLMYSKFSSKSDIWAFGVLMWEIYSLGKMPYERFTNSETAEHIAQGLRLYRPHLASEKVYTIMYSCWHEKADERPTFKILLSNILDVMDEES
T10 sequence (Q16620 32-822): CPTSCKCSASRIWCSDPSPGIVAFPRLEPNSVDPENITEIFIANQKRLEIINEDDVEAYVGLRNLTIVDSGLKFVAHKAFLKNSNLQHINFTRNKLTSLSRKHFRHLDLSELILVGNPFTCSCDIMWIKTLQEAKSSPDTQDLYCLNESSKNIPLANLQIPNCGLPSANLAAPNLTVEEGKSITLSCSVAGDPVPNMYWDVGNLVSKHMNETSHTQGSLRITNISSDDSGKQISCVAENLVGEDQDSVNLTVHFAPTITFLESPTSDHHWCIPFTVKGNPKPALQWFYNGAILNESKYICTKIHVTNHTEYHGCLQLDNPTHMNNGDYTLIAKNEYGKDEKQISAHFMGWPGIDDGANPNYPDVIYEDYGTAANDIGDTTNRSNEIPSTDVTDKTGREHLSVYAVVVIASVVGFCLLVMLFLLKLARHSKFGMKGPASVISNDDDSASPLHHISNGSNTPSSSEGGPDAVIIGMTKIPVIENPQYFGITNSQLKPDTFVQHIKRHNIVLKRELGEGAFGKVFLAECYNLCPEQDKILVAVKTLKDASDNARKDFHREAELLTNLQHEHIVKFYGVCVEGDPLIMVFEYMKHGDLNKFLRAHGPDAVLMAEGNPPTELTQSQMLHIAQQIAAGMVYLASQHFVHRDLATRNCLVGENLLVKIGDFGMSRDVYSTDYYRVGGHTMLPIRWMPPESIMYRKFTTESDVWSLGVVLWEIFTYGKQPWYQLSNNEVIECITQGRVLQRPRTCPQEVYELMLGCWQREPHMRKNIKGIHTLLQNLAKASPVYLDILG
T9 sequence (P00533 25-1210): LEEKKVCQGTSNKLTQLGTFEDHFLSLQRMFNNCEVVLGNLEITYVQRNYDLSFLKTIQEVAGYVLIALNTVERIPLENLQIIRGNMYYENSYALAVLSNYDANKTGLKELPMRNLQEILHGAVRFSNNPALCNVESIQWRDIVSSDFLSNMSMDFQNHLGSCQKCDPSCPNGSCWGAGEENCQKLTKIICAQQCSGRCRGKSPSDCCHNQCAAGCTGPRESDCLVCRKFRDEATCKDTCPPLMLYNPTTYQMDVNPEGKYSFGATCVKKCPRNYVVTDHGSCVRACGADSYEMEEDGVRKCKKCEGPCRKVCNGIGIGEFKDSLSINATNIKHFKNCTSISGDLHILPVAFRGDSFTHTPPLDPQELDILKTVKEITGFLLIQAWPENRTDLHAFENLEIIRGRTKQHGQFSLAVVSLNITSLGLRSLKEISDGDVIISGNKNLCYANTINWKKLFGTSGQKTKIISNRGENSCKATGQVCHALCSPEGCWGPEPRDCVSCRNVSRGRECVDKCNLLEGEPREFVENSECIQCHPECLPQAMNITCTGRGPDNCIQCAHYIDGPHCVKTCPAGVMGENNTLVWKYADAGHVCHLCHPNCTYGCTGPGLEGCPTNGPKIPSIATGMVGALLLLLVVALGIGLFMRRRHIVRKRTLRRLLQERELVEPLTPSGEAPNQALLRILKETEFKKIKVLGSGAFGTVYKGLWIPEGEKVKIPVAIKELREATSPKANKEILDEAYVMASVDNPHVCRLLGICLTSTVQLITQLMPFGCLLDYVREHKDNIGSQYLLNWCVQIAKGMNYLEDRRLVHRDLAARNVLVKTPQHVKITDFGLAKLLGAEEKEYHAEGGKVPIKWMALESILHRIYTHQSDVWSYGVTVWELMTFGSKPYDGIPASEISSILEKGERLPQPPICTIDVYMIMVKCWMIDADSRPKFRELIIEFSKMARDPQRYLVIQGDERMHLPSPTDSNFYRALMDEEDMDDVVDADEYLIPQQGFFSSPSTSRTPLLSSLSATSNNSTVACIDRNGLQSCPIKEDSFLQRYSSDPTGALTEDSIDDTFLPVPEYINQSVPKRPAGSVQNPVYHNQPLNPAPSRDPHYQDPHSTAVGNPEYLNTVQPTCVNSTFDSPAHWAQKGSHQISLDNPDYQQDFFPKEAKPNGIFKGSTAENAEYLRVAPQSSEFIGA
T5 sequence (Q16288 32-839): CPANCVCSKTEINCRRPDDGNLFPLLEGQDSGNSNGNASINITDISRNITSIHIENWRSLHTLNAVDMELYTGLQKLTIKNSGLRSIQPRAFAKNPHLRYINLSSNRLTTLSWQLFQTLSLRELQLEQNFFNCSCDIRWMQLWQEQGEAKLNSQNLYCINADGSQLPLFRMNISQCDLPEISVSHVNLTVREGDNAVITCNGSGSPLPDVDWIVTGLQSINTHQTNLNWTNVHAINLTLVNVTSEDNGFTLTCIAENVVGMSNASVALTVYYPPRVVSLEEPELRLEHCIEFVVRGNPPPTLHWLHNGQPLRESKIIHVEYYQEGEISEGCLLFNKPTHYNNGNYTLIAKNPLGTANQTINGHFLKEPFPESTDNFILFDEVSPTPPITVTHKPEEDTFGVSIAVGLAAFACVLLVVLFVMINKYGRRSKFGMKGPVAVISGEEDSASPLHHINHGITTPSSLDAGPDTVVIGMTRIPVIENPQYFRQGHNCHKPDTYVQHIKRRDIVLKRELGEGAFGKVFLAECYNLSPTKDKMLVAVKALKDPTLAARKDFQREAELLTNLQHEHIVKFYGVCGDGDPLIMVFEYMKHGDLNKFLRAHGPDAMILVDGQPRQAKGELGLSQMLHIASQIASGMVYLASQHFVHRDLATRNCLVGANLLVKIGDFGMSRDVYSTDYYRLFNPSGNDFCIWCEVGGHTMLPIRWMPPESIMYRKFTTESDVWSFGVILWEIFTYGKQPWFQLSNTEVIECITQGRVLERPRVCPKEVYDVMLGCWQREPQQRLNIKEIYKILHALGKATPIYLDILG
Chain of LIMK1(h) (P53667 whole entry): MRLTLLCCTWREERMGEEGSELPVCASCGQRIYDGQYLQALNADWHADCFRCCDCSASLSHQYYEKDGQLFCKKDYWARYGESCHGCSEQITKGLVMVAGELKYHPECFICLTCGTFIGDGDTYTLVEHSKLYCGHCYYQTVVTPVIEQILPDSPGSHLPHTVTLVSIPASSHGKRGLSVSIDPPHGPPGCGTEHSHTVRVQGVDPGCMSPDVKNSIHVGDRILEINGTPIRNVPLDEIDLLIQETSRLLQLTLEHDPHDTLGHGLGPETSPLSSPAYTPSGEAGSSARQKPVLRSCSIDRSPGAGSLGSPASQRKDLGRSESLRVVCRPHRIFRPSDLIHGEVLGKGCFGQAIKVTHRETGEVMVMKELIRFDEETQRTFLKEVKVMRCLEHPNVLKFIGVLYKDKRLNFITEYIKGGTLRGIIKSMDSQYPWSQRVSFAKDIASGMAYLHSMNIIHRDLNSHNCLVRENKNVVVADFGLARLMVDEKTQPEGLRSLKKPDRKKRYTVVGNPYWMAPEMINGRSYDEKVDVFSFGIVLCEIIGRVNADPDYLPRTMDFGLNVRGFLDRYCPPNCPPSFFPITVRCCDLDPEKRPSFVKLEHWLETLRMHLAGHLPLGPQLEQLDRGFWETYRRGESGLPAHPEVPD
T1 sequence (P10721 26-976 D816H): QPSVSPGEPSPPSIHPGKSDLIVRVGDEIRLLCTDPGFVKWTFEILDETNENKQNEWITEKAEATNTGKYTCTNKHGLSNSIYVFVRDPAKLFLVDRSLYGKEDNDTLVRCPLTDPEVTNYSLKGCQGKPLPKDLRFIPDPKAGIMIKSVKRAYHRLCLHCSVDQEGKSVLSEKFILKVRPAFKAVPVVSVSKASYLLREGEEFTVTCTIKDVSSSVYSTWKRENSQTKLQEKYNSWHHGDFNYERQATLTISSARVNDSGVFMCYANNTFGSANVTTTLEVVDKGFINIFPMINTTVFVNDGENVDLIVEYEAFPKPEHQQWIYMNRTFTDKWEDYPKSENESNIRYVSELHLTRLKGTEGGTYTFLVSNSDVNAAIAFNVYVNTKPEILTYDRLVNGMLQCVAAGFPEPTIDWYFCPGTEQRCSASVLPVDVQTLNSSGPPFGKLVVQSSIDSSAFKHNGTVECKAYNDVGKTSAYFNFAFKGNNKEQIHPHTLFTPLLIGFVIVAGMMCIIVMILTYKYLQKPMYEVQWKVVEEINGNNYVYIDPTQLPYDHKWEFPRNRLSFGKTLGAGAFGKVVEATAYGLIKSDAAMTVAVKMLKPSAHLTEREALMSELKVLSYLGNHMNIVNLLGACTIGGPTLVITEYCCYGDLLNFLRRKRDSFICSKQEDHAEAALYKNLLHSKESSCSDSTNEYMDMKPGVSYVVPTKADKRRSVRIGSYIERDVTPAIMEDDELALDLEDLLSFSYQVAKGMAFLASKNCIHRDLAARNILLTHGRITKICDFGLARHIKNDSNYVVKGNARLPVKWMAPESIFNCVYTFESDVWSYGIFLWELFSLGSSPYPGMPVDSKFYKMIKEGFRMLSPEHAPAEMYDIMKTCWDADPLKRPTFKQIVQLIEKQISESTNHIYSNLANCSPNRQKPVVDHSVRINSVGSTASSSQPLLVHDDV
T6 sequence (P10721 26-976): as the sequence (P10721 26-976 D816H) above, with H791D counted along it

Compound | IC50 (P-MEK/Total MEK; Homo sapiens, 2 h, read-out: IC50 P-MEK/Total MEK) | Selectivity ratio (P-MEK/Total MEK; IC50 P-MEK/Total MEK divided by IC50 Phospho-Ser3-Cofilin/Total Cofilin) | activity at 5 µM (cKit(D816H)(h)) | IC50 [1] | activity at 5 µM (A-Raf(h)) | activity at 5 µM (Plk3(h)) | activity at 5 µM (BTK(h)) | activity at 5 µM (TrkC(h)) | activity at 5 µM (cKit(h)) | activity at 5 µM (Src(1-530)(h)) | activity at 5 µM (PKBα(h)) | activity at 5 µM (EGFR(h)) | activity at 5 µM (LIMK1(h)) | activity at 5 µM (TrkB(h)) | activity at 5 µM [2]
O=S(=O)(Nc1cccc(-c2nc(CCO)sc2-c2ccnc(Nc3ccccc3)n2)c1F)c1c(F)cccc1F [8 (Na)] | > 1000 nM | 10 |  |  |  |  |  |  |  |  |  |  |  |  | 
CC(C)(C)c1nc(-c2cccc(NS(=O)(=O)c3c(F)cccc3F)c2F)c(-c2ccnc(Nc3ccccc3)n2)s1 [Compound 1, N-(3-(2-(tert-butyl)-5-(2-(phenylamino)pyrimidin-4-yl)thiazol-4-yl)-2-fluorophenyl)-2,6-difluorobenzenesulfonamide] |  |  | 10 to 50% | < 200 nM | ≥ 50% | ≥ 50% | 10 to 50% | ≥ 50% | ≥ 50% | 3 to 10% | ≥ 50% | ≥ 50% | < 3% | ≥ 50% | ≥ 50%
